Values of other authors in patent US6110927A, “Loratadine for use as an antiarrhythmic” (Pfizer Inc, priority 1999, dated 2000).

Assays:
[1] = clinical studies
hKv1.5 channels = details: only at concentrations much higher than therapeutic plasma levels in man
[2] = both with and without a history of similar arrhythmia

| Structure (SMILES) | efficacy in treating patients with atrial arrhythmias [1] | block of hKv1.5 channels (hKv1.5 channels) | reported cases of atrial fibrillation with loratadine use [2] |
| --- | --- | --- | --- |
| CN(CCOc1ccc(NS(C)(=O)=O)cc1)CCc1ccc(NS(C)(=O)=O)cc1 [dofetilide] | effective in treating patients with atrial arrhythmias |  |  |
| CCOC(=O)N1CCC(=C2c3ccc(Cl)cc3CCc3cccnc32)CC1 [loratadine, ethyl 4-(8-chloro-5,6-dihydro-11-H-benzo [5,6]cyclohepta-[1,2-b]-pyridin-11-ylidene)-1-piperidinecarboxylate] |  | blocked hKv1.5 channels in a concentration-, voltage-, time- and use-dependent manner | at least 2 cases |
